US20120022121A1, “INDOLES, DERIVATIVES AND ANALOGS THEREOF AND USES THEREFOR” (priority 2007, published 2012)

Key:
DU-145 = assay: Cell viability SRB assay, 96 h; format: cell-based; conditions: Homo sapiens, DU-145, 96 h
Method: (§1) Cell viability (LNCaP, PC-3 prostate, DU145, PPC-1, and TSU-Pr1 prostate cancer cell lines, HT-29 colon cancer cell line, and MCF-7 breast cancer cell line) was quantitated using the sulforhodamine B (SRB) assay after 96 h coincubation with different concentrations of compound in 96-well plates. Cell viability of leukemia cells (K562 and doxorubicin-resistant K562/Dox) was quantitated by MTT assay after 96 h coincubation with different concentrations of compound in 96-well plates. Drug-induced apoptosis was determined by anti-histone ELISA assay and DNA laddering. Cell cycle progression was assessed by propidium iodide staining and fluorescence-activated cell sorting (FACS) analysis. In vitro tubulin polymerization assay was determined by CytoDYNAMIX ScreenTM3 (CDS-03) kits according to the manufacturer's instructions. Anti-apoptosis protein (Bcl-2 and Bcl-xl) and pro-apoptosis protein (Bax) were examined in LNCaP and PC-3 after 24 h incubation with different concentrations of compound 13 by Western blot assay. In vivo PC-3 xenograft studies were conducted by i.v. dosing of 50 mg/kg, 100 mg/kg and 150 mg/kg for 2 weeks.
(§2) Cells were plated in 96-well plates at a density of 800-5,000 cells/well, depending on the cell line, in their required growth media containing 10% fetal bovine serum. Preliminary studies were performed with each cell line using a variety of cell densities and incubation times to determine appropriate seeding densities. The compound of interest was dissolved in DMSO, diluted in cell culture medium (final DMSO concentration was less than 0.5% v/v), and added to quadruplicate wells at final concentrations ranging from 0 to 100 μM. Control wells to which only drug-free vehicle was added were included as negative controls.
(§3) Cells were incubated for 96 hour at 37° C. in a humidified atmosphere containing 5% carbon dioxide.
(§4) Cells were stained with SRB solution. […] WinNonlin was provided by a Pharsight Academic License to The Ohio State University.

PC-3 [1] = assay: Cell viability SRB assay, 96 h; format: cell-based; conditions: Homo sapiens, PC-3, 96 h
Method: as §1, §2, §3, §4

PPC-1 [2] = assay: Cell viability SRB assay, 96 h; format: cell-based; conditions: Homo sapiens, PPC-1, 96 h
Method: as §1, §2, §3, §4

LNCaP [3] = assay: Cell viability SRB assay, 96 h; format: cell-based; conditions: Homo sapiens
Method: as §1, §2, §3, §4

PC-3 [4] = assay: Cytotoxicity assay (SRB, 96 h); format: cell-based; conditions: Homo sapiens, PC-3, 96 h
PPC-1 [5] = assay: Cytotoxicity assay (SRB, 96 h); format: cell-based; conditions: Homo sapiens, PPC-1, 96 h
WM164 = assay: Cytotoxicity assay (SRB, 48 h); format: cell-based, human; conditions: Homo sapiens, WM164 melanoma
LNCaP [6] = assay: Cytotoxicity assay (SRB, 96 h); format: cell-based; conditions: Homo sapiens
[7] = test system: melanoma and prostate cancer cell lines; assay: Cytotoxicity assay (SRB), summary over the cell lines of Table 3; format: cell-based; conditions: Homo sapiens
A375 = assay: Cytotoxicity assay (SRB, 48 h); format: cell-based, human; conditions: Homo sapiens
Du 145 = assay: Cytotoxicity assay (SRB, 96 h); format: cell-based; conditions: Homo sapiens; Du 145, 96 h
TSU = assay: Cell viability SRB assay, 96 h; format: cell-based; conditions: Homo sapiens, TSU (TSU-Pr1)
Method: as §1, §2, §3, §4

IC50 (DU-145)	IC50 (PC-3 [1])	IC50 (LNCaP [3])	melting point	SMILES	IC50 (PPC-1 [2])	IC50 (PC-3 [4])	IC50 (PPC-1 [5])	IC50 (WM164; WM164, 48 h)	IC50 (LNCaP [6])	IC50 [7]	IC50 (A375; A-375, 48 h, A375 melanoma)	IC50 (Du 145)	IC50 (WM164)	IC50 (A375; A-375, A375 melanoma)	IC50 (TSU)
18 µM	9.2 µM	7.8 µM		COc1cc(C(=O)c2cccc(-c3cc4ccccc4n3S(=O)(=O)c3ccccc3)c2)cc(OC)c1OC [Compound 67, [3-(1-Benzenesulfonyl-1H-indol-2-yl)-phenyl]-(3,4,5-trimethoxy-phenyl)-methanone]	68.5 µM										
			207 to 209 °C	COc1cc(C(=O)c2cc3ccc(Cl)cc3[nH]2)cc(OC)c1OC [Compound 112, (6-Chloro-1H-indol-2-yl)(3,4,5-trimethoxyphenyl)methanone]		> 10 µM	> 10 µM	> 10 µM	> 10 µM	> 10 µM	> 10 µM	> 10 µM			
7.2 µM	5.9 µM	3.1 µM		COc1cc(C(O)c2cccc(-c3cc4ccccc4[nH]3)c2)cc(OC)c1OC (stereo not shown) [Compound 66A, [3-(1H-Indol-2-yl)-phenyl]-(3,4,5-trimethoxy-phenyl)-methanol]	1.9 µM										
			171 to 173 °C	COc1cc(C(=O)c2cc3ccc(F)cc3n2S(=O)(=O)c2ccccc2)cc(OC)c1OC [Compound 106, (6-Fluoro-1-(phenylsulfonyl)-1H-indol-2-yl)(3,4,5-trimethoxyphenyl)methanone]		> 10 µM	> 10 µM	> 10 µM	> 10 µM		> 10 µM	> 10 µM			
> 100 µM	> 100 µM	> 100 µM	76 to 78 °C	O=S(=O)(c1ccccc1)n1c(Cc2cccc(-c3cc4ccccc4n3S(=O)(=O)c3ccccc3)c2)cc2ccccc21 [Compound 9, (1-Benzenesulfonyl-1H-indol-2-yl)-[3-(1-benzenesulfonyl-1H-indol-2-yl)phenyl]methane]	> 100 µM										> 100 µM
				COc1cc(C(=O)c2cc3ccc(F)cc3n2C)cc(OC)c1OC [Compound 121, (6-Fluoro-1-methyl-1H-indol-2-yl)(3,4,5-trimethoxyphenyl)methanone]		> 10 µM	8.3 µM		1.05 µM	1 to 10 µM		> 10 µM	7.5 µM	5.87 µM	
21.8 µM	65.1 ± 5.3 µM	23.8 ± 3 µM		OCc1cccc(-c2cc3ccccc3[nH]2)c1 [Compound 130]	26.6 µM										
11.6 µM	13.5 µM	5.6 µM	82 to 85 °C	OC(c1cccc(-c2cc3ccccc3[nH]2)c1)c1cc2ccccc2[nH]1 (stereo not shown) [Compound 11, (1H-indol-2-yl)-[3-(1H-indol-2-yl)phenyl]methanol]	3.8 µM										
			196 to 198 °C	COc1cc(C(=O)c2cc3cc(F)ccc3[nH]2)cc(OC)c1OC [Compound 117, (5-Fluoro-1H-indol-2-yl)(3,4,5-trimethoxyphenyl)methanone]		9.16 µM	1 µM	2.26 µM	8.63 µM		2.21 µM	3.42 µM			
5.73 µM	2.7 µM	2.78 µM		O=C(c1ccc(F)cc1)c1cccc(-c2ccc3[nH]ccc3c2)c1 [Compound 125, (4-Fluoro-phenyl)-[3-(1H-indol-5-yl)-phenyl]-methanone]	0.63 µM										
				COc1cc(C(=O)c2cc3ccc(Cl)cc3n2C)cc(OC)c1OC [Compound 119, (6-Chloro-1-methyl-1H-indol-2-yl)(3,4,5-trimethoxyphenyl)methanone]		3.76 ± 0.83 µM	4.33 ± 0.72 µM		1.04 ± 0.25 µM			> 10 µM	8.08 ± 1.21 µM	6.65 ± 0.33 µM	
61.5 µM	45 µM	10.1 µM		COc1cc(C(O)c2cccc(-c3cc4ccccc4n3S(=O)(=O)c3ccccc3)c2)cc(OC)c1OC (stereo not shown) [Compound 66, [3-(1-Benzenesulfonyl-1H-indol-2-yl)-phenyl]-(3,4,5-trimethoxy-phenyl)-methanol]	35.3 µM										
				COc1cc(C(=O)c2cc3ccc(F)cc3[nH]2)cc(OC)c1OC [Compound 113, (6-Fluoro-1H-indol-2-yl)(3,4,5-trimethoxyphenyl)methanone]		> 10 µM	> 10 µM	> 10 µM	> 10 µM	> 10 µM	> 10 µM	> 10 µM			
1.4 µM	2.6 µM	3.7 µM		COc1ccc(C(=O)c2cccc(-c3cc4ccccc4[nH]3)c2)cc1 [Compound 84, [3-(1H-Indol-2-yl)-phenyl]-(4-methoxy-phenyl)-methanone]	0.9 µM										
2.12 µM	2 µM	1.74 µM		O=C(c1ccccc1)c1cccc(-c2cc3ccccc3[nH]2)c1 [Compound 80A, [3-(1H-Indol-2-yl)-phenyl]-phenyl-methanone]	1.52 µM										
16.2 µM	4.6 µM	3 µM		COc1cc(-c2cccc(C(=O)c3cc4ccccc4[nH]3)c2)cc(OC)c1OC [Compound 65, (1H-Indol-2-yl)-(3′,4′,5′-trimethoxy-biphenyl-3-yl)-methanone]	4.1 µM										
29.2 µM	29.2 µM	4.9 µM		COc1cc(-c2cccc(C(=O)c3cc4ccccc4n3S(=O)(=O)c3ccccc3)c2)cc(OC)c1OC [Compound 64, (1-Benzenesulfonyl-1H-indol-2-yl)-(3′,4′,5′-trimethoxy-biphenyl-3-yl)-methanone]	44.7 µM										58.9 µM
				COc1ccc2[nH]c(C(=O)c3cc(OC)c(OC)c(OC)c3)cc2c1 [Compound 148, (5-Methoxy-1H-indol-2-yl)(3,4,5-trimethoxyphenyl)methanone]		0.04 µM	0.05 µM		0.05 µM	0.05 µM		0.08 µM	0.04 µM	0.03 µM	
4.01 µM	1.5 µM	1.56 µM		O=C(c1ccc(F)cc1)c1cccc(-c2cc3ccccc3n2S(=O)(=O)c2ccccc2)c1 [Compound 126, [3-(1-Benzenesulfonyl-1H-indol-2-yl)-phenyl]-(4-fluoro-phenyl)-methanone]	0.55 µM										
	90.4 ± 27.5 µM	58.5 ± 14.3 µM		COC(=O)c1csc(C(=O)c2c[nH]c3ccccc23)n1 [Compound 59, methyl 2-(1H-indole-3-carbonyl)thiazole-4-carboxylate]											
			179 to 181 °C	COc1cc(C(=O)c2cc3ccc(C)cc3[nH]2)cc(OC)c1OC [Compound 116, (6-Methyl-1H-indol-2-yl)(3,4,5-trimethoxyphenyl)methanone]		> 10 µM	> 10 µM	> 10 µM	> 10 µM		> 10 µM	> 10 µM			
				COc1cc(C(=O)c2cc3ccc(Cl)cc3n2Cc2ccccc2)cc(OC)c1OC [Compound 120, (1-Benzyl-6-chloro-1H-indol-2-yl)(3,4,5-trimethoxyphenyl)methanone]		> 10 µM	> 10 µM	> 10 µM	> 10 µM	> 10 µM	> 10 µM	> 10 µM			
38 µM	11.6 µM	4.2 µM		COc1cc(-c2cccc(C(O)c3cc4ccccc4n3S(=O)(=O)c3ccccc3)c2)cc(OC)c1OC (stereo not shown) [Compound 63, (1-Benzenesulfonyl-1H-indol-2-yl)-(3′,4′,5′-trimethoxy-biphenyl-3-yl)-methanol]	21.8 µM										

SMILES	IC50 (DU-145)	IC50 (PC-3 [1])	IC50 (LNCaP [3])	melting point	IC50 (PPC-1 [2])	IC50 (PC-3 [4])	IC50 (PPC-1 [5])	IC50 (WM164; WM164, 48 h)	IC50 (LNCaP [6])	IC50 [7]	IC50 (A375; A-375, 48 h, A375 melanoma)	IC50 (Du 145)	IC50 (WM164)	IC50 (A375; A-375, A375 melanoma)	IC50 (TSU)
COc1ccc2cc(C(=O)c3cc(OC)c(OC)c(OC)c3)n(S(=O)(=O)c3ccccc3)c2c1 [Compound 107, (6-Methoxy-1-(phenylsulfonyl)-1H-indol-2-yl)(3,4,5-trimethoxyphenyl)methanone]				156 to 158 °C		2.66 µM	1.05 µM		> 10 µM			> 10 µM	> 10 µM	8.22 µM	
c1ccc2[nH]ccc2c1 [indole]	> 100 µM	> 100 µM	> 100 µM		> 100 µM										> 100 µM
